Experimental data: patent publication US20160052898A1, “NOVEL COMPOUNDS” (BAYER PHARMA AKTIENGESELLSCHAFT, priority 2013, published 2016)
Read-outs that look alike come from different tables or passages of the source.

Assays:
[1] = system: HCT116 FOP control reporter cell line; assay: HCT116 FOP control vector reporter assay (non-functional TCF elements); type: cell-based; settings: HCT116 FOP control reporter cells, luciferase expression, 36 hours incubation, 50 μM to 15 nM, read-out: HCT116 FOPFlash IC50
Method: (§1) In a parallel approach, HCT116 cells were cotransfected with the FOP control vector and pcDNA3. The FOP vector is identical to the TOP construct, but it contains instead of functional TCF elements a randomized, non-functional sequence. For this transfection a stable transfected cell line was generated as well.
(§2) In preparation of the assay, the two cell lines were plated 24 hrs before at 10000 cells per well of a 384 micro titre plate (MTP) in 30 μL growth medium. Selective inhibitory activity for small molecules on the mutated Wnt pathway was determined after parallel incubation of both (TOP and FOP) HCT116 reporter cell lines with a compound dilution series from 50 μM to 15 nM in steps of 3.16-fold dilutions in CAFTY buffer (130 mM NaCl, 5 mM KCl, 20 mM HEPES, 1 mM MgCl2, 5 mM NaHCO3, pH 7.4) containing 2 mM Ca^2+ and 0.01% BSA. The compounds were thereby serially prediluted in 100% DMSO and thereafter in addition 50 fold into the CAFTY compound dilution buffer (described above). From this dilution 10 μL were added to the cells in 30 μL growth medium and incubated for 36 hours at 37° C. and 5% CO2. Thereafter luciferase assay buffer (1:1 mixture of luciferase substrate buffer (20 mM Tricine, 2.67 mM MgSO4, 0.1 mM EDTA, 4 mM DTT, 270 μM Coenzyme A, 470 μM Luciferin, 530 μM ATP, ph adjusted to pH 7.8 with a sufficient volume of 5M NaOH) and Triton buffer (30 mL Triton X-100, 115 mL glycerol, 308 mg Dithiothreitol, 4.45 g Na2HPO4.2 H2O, 3.03 g Tris.HCL, ad 1 l H20, pH 7.8) was added as equal volume to the compound solution on the cells to determine luciferase expression as a measure of Wnt signaling activity in a luminometer.

[2] = system: constitutive active colorectal cancer cell (CRC) Wnt pathway; assay: HCT116 Super TopFlash cellular reporter assay (constitutive active Wnt pathway); type: cell-based; settings: HCT116 TOP reporter cells, luciferase expression, 36 hours incubation, 50 μM to 15 nM
Method: In order to discover and characterize small molecules which inhibit the constitutive active colorectal cancer cell (CRC) Wnt pathway, a cellular reporter assay was employed. The corresponding assay cell was generated by transfection of the colorectal cancer cell line HCT116 (ATCC, #CCL-247) with the Super TopFlash vector (Morin, Science 275, 1997, 1787-1790; Molenaar et al., Cell 86 (3), 1996, 391-399). The HCT116 cell line is cultivated at 37° C. and 5% CO2 in DMEM/F-12 (Life Technologies, #11320-074), supplemented with 2 mM glutamine, 20 mM HEPES, 1.4 mM pyruvate, 0.15% Na-bicarbonate and 10% foetal bovine serum (GIBCO, #10270), this cancer cell line is pathophysiological relevant since it carries a deletion of position S45 in the β-catenin gene, leading to constitutive active Wnt signaling. Stable transfectants were generated by cotransfection with pcDNA3 and selection of stable transfected cells with 1 mg/ml G418.
as §1, §2

CCC(C(=O)Nc1cc(C(=O)Nc2ccc(-c3ccccc3)cc2)ccc1OC)N1CCOCC1 (single isomer, unassigned) [Example 131, N-(biphenyl-4-yl)-4-methoxy-3-{[(2R*)-2-(morpholin-4-yl)butanoyl)amino} benzamide] was tested, and the IC50 ([1]; Homo sapiens, HCT-116, 36 h) was ≥ 50000 nM and the IC50 ([2]; Homo sapiens, HCT-116, 36 h) was 174 nM.
CCC(C(=O)Nc1cc(C(=O)Nc2ccc(-c3ccccc3)cc2)ccc1OC)N1CCOCC1 (single isomer, unassigned) [Example 132, N-(biphenyl-4-yl)-4-methoxy-3-{[(2S*)-2-(morpholin-4-yl)butanoyl]amino} benzamide] was tested, and the IC50 [1] was ≥ 50000 nM and the IC50 [2] was 310 nM.
For COCc1ccc(C(=O)Nc2ccc(-c3ccccc3)cc2)cc1NC(=O)C(C)N1CC2CCC(C1)O2 (single isomer, unassigned) [Example 146, N-(biphenyl-4-yl)-4-(methoxymethyl)-3-{[(2R*)-2-(8-oxa-3-azabicyclo[3.2.1]oct-3-yl)propanoyl)amino} benzamide], the IC50 ([1]; Homo sapiens, HCT-116, 36 h) was 27000 nM and the IC50 ([2]; Homo sapiens, HCT-116, 36 h) was 9.98 nM.
With COCCOCc1ccc(C(=O)Nc2ccc(-c3ccccc3)cc2)cc1NC(=O)C(C)N1CCOCC1 (single isomer, unassigned) [Example 162, N-(biphenyl-4-yl)-4-[(2-methoxyethoxy)methyl]-3-{[(2R*)-2-(morpholin-4-yl)propanoyl)amino} benzamide] the IC50 ([1]; Homo sapiens, HCT-116, 36 h) was 10400 nM and the IC50 ([2]; Homo sapiens, HCT-116, 36 h) was 103 nM.
Compound COCCCOCc1ccc(C(=O)Nc2ccc(-c3ccccc3)cc2)cc1NC(=O)C(C)N1CCOCC1 (single isomer, unassigned) [Example 166, N-(biphenyl-4-yl)-4-[(3-methoxypropoxy)methyl]-3-{[(2R*)-2-(morpholin-4-yl)propanoyl]amino} benzamide] has an IC50 ([1]; Homo sapiens, HCT-116, 36 h) of 5400 nM and an IC50 [2] of 135 nM.
COCc1ccc(C(=O)Nc2ccc(-c3ccccc3)cc2)cc1NC(=O)C(C)N1CC2CCC(C1)O2 (single isomer, unassigned) [Example 167, N-(biphenyl-4-yl)-4-(methoxymethyl)-3-{[(2S*)-2-(8-oxa-3-azabicyclo[3.2.1]oct-3-yl)propanoyl]amino} benzamide] gave an IC50 ([1]; Homo sapiens, HCT-116, 36 h) of 41200 nM and an IC50 ([2]; Homo sapiens, HCT-116, 36 h) of 139 nM.
With COCc1ccc(C(=O)Nc2ccc(-c3ccccc3)cc2)cc1NC(=O)C(C)N1CCOCC1 (single isomer, unassigned) [Example 169, N-(biphenyl-4-yl)-4-(methoxymethyl)-3-{[(2R*)-2-(morpholin-4-yl)propanoyl]amino} benzamide] the IC50 ([1]; Homo sapiens, HCT-116, 36 h) was 10000 nM and the IC50 ([2]; Homo sapiens, HCT-116, 36 h) was 154 nM.
With CC(C(=O)Nc1cc(NC(=O)c2ccc(-c3ccccc3)cc2)ccc1C(F)(F)F)N1CCOCC1 (single isomer, unassigned) [Example 172, N-[3-{[(2R*)-2-(morpholin-4-yl)propanoyl]amino}-4-(trifluoromethyl)phenyl] biphenyl-4-carboxamide] the IC50 ([1]; Homo sapiens, HCT-116, 36 h) was ≥ 50000 nM and the IC50 ([2]; Homo sapiens, HCT-116, 36 h) was 211 nM.
COCc1ccc(C(=O)Nc2ccc(-c3ccccc3)cc2)cc1NC(=O)C(C)N1CCOCC1 (single isomer, unassigned) [Example 173, N-(biphenyl-4-yl)-4-(methoxymethyl)-3-{[(2S*)-2-(morpholin-4-yl)propanoyl]amino} benzamide] gave an IC50 [1] of 7500 nM and an IC50 [2] of 214 nM.
For COCCOCc1ccc(C(=O)Nc2ccc(-c3ccccc3)cc2)cc1NC(=O)C(C)N1CCOCC1 (single isomer, unassigned) [Example 177, N-(biphenyl-4-yl)-4-[(2-methoxyethoxy)methyl)-3-{[(2S*)-2-(morpholin-4-yl)propanoyl)amino} benzamide], the IC50 ([1]; Homo sapiens, HCT-116, 36 h) was 15000 nM and the IC50 ([2]; Homo sapiens, HCT-116, 36 h) was 265 nM.
COCCCOCc1ccc(C(=O)Nc2ccc(-c3ccccc3)cc2)cc1NC(=O)C(C)N1CCOCC1 (single isomer, unassigned) [Example 179, N-(biphenyl-4-yl)-4-[(3-methoxypropoxy)methyl]-3-{[(2S*)-2-(morpholin-4-yl)propanoyl]amino} benzamide] gave an IC50 [1] of 7600 nM and an IC50 [2] of 300 nM.
